Source: patent US11034650B2, “Compounds useful for treating a Mannheimia haemolytica or Histophilus somni infection” (Intervet Inc., priority 2016, dated 2021)
≈ marks a conversion by molar mass, not a printed value.

Assays:
Type in all cases: cell-based
[1] = tested on: Pasteurella multocida PM 6267 (P 2225 (L386), reference strain, mouse infection strain); assay: MIC, broth-microdilution (CLSI VET01-A4), strain PM 6267; settings: Pasteurella multocida strain PM 6267, broth-microdilution; unit assumed
Outline: (§1)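 Read-out is unaided visual inspection for turbidity. The minimum inhibitory concentration is the lowest tested level without detectable growth across a two-fold compound series.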

[2] = tested on: Mannheimia haemolytica MH 13065 (XB0446-6003.9, BRD field isolate); assay: MIC, broth-microdilution (CLSI VET01-A4), strain MH 13065; settings: Mannheimia haemolytica strain MH 13065, broth-microdilution; unit assumed
Outline: as §1

[3] = tested on: Mannheimia haemolytica MH 12587 (1071, BRD field isolate, macrolide-resistance: erm+, E+); assay: MIC, broth-microdilution (CLSI VET01-A4), strain MH 12587; settings: Mannheimia haemolytica strain MH 12587, broth-microdilution; unit assumed
Outline: as §1

[4] = tested on: Mannheimia haemolytica MH 6357 (M7/2, reference strain, cattle infection strain); assay: MIC, broth-microdilution (CLSI VET01-A4), strain MH 6357; settings: Mannheimia haemolytica strain MH 6357, broth-microdilution; unit assumed
Outline: as §1

[5] = tested on: Mannheimia haemolytica MH 13093 (XB0472-6014.1, BRD field isolate); assay: MIC, broth-microdilution (CLSI VET01-A4), strain MH 13093; settings: Mannheimia haemolytica strain MH 13093, broth-microdilution; unit assumed
Outline: as §1

[6] = tested on: Mannheimia haemolytica MH 10720 (154, BRD field isolate); assay: MIC, broth-microdilution (CLSI VET01-A4), strain MH 10720; settings: Mannheimia haemolytica strain MH 10720, broth-microdilution; unit assumed
Outline: as §1

[7] = tested on: Mannheimia haemolytica MH 6374 (ATCC 33396, reference strain); assay: MIC, broth-microdilution (CLSI VET01-A4), strain MH 6374; settings: Mannheimia haemolytica strain MH 6374, broth-microdilution; unit assumed
Outline: as §1

[8] = tested on: Pasteurella multocida PM 10775 (080130003051, BRD field isolate); assay: MIC, broth-microdilution (CLSI VET01-A4), strain PM 10775; settings: Pasteurella multocida strain PM 10775, broth-microdilution; unit assumed
Outline: as §1

[9] = tested on: Pasteurella multocida PM 12080 (IV102277-0093, BRD field isolate); assay: MIC, broth-microdilution (CLSI VET01-A4), strain PM 12080; settings: Pasteurella multocida strain PM 12080, broth-microdilution; unit assumed
Outline: as §1

[10] = tested on: Pasteurella multocida PM 6391 (ATCC 43137, reference strain); assay: MIC, broth-microdilution (CLSI VET01-A4), strain PM 6391; settings: Pasteurella multocida strain PM 6391, broth-microdilution; unit assumed
Outline: as §1

MIC PM 6267 [1]	MIC PM 10775 [8]	MIC PM 12080 [9]	MIC PM 6391 [10]	SMILES	MIC MH 13065 [2]	MIC MH 12587 [3]	MIC MH 6357 [4]	MIC MH 13093 [5]	MIC MH 10720 [6]	MIC MH 6374 [7]
6.3 µg/mL (≈ 12.6 µM)	0.8 µg/mL (≈ 1.6 µM)	0.4 µg/mL (≈ 0.802 µM)	0.2 µg/mL (≈ 0.401 µM)	CON=C(C)[C@H](NC(=O)c1ccc(C#Cc2ccc(CNCc3ccc(C)cc3)cc2)cc1)C(=O)NO [Compound 393]	6.3 µg/mL (≈ 12.6 µM)	0.4 µg/mL (≈ 0.802 µM)	0.8 µg/mL (≈ 1.6 µM)	6.3 µg/mL (≈ 12.6 µM)	0.8 µg/mL (≈ 1.6 µM)	1.6 µg/mL (≈ 3.21 µM)
0.2 µg/mL (≈ 0.37 µM)	≤ 0.1 µg/mL	≤ 0.1 µg/mL	≤ 0.1 µg/mL	CC(C)([C@H](NC(=O)c1ccc(C#Cc2ccc(CNCc3ccncc3)s2)cc1)C(=O)NO)S(C)(=O)=O [Compound 317]	0.4 µg/mL (≈ 0.74 µM)	0.8 µg/mL (≈ 1.48 µM)	0.2 µg/mL (≈ 0.37 µM)	0.4 µg/mL (≈ 0.74 µM)	≤ 0.1 µg/mL	0.4 µg/mL (≈ 0.74 µM)
≤ 0.1 µg/mL	≤ 0.1 µg/mL	0.4 µg/mL (≈ 0.876 µM)	0.4 µg/mL (≈ 0.876 µM)	CC(C)[C@H](NC(=O)c1ccc(C#Cc2ccc(CNCc3ccccn3)cc2)cc1)C(=O)NO [Compound 169]	0.8 µg/mL (≈ 1.75 µM)	1.6 µg/mL (≈ 3.5 µM)	0.4 µg/mL (≈ 0.876 µM)	0.8 µg/mL (≈ 1.75 µM)	0.2 µg/mL (≈ 0.438 µM)	0.8 µg/mL (≈ 1.75 µM)
50 µg/mL (≈ 110 µM)	3.1 µg/mL (≈ 6.79 µM)	1.6 µg/mL (≈ 3.5 µM)	0.8 µg/mL (≈ 1.75 µM)	CC(=O)C(NC(=O)c1ccc(C#Cc2ccc(CNCc3ccncc3)cc2)cc1)C(=O)NO (centres unmarked) [Compound 402]	6.3 µg/mL (≈ 13.8 µM)	1.6 µg/mL (≈ 3.5 µM)	6.3 µg/mL (≈ 13.8 µM)	6.3 µg/mL (≈ 13.8 µM)	6.3 µg/mL (≈ 13.8 µM)	12.5 µg/mL (≈ 27.4 µM)
≤ 0.1 µg/mL	≤ 0.1 µg/mL	≤ 0.1 µg/mL	≤ 0.1 µg/mL	CC(C)([C@H](NC(=O)c1ccc(C#Cc2ccc(CNCC#N)cc2)cc1)C(=O)NO)S(C)(=O)=O [Compound 266]	0.8 µg/mL (≈ 1.66 µM)	1.6 µg/mL (≈ 3.32 µM)	0.8 µg/mL (≈ 1.66 µM)	0.8 µg/mL (≈ 1.66 µM)	≤ 0.1 µg/mL	0.4 µg/mL (≈ 0.829 µM)
0.8 µg/mL (≈ 1.54 µM)	≤ 0.1 µg/mL	≤ 0.1 µg/mL	0.4 µg/mL (≈ 0.771 µM)	CC(C)(C(NC(=O)c1ccc(C#Cc2ccc(CNCc3ccc(F)cc3)cc2)cc1)C(=O)NO)[N+](=O)[O-] (centres unmarked) [Compound 284]	0.2 µg/mL (≈ 0.386 µM)	1.6 µg/mL (≈ 3.09 µM)	0.4 µg/mL (≈ 0.771 µM)	0.8 µg/mL (≈ 1.54 µM)	≤ 0.1 µg/mL	0.8 µg/mL (≈ 1.54 µM)
1.6 µg/mL (≈ 3.18 µM)	≤ 0.1 µg/mL	0.4 µg/mL (≈ 0.796 µM)	0.8 µg/mL (≈ 1.59 µM)	COCCNCc1ccc(C#Cc2ccc(C(=O)N[C@H](C(=O)NO)C(C)(C)S(C)(=O)=O)cc2)cn1 [Compound 349]	6.3 µg/mL (≈ 12.5 µM)	6.3 µg/mL (≈ 12.5 µM)	1.6 µg/mL (≈ 3.18 µM)	3.1 µg/mL (≈ 6.17 µM)	0.8 µg/mL (≈ 1.59 µM)	3.1 µg/mL (≈ 6.17 µM)
≤ 0.1 µg/mL	≤ 0.1 µg/mL	≤ 0.1 µg/mL	0.2 µg/mL (≈ 0.394 µM)	CSC(C)(C)[C@H](NC(=O)c1ccc(C#Cc2ccc(CNCc3cccs3)cc2)cc1)C(=O)NO [Compound 251]	0.8 µg/mL (≈ 1.58 µM)	1.6 µg/mL (≈ 3.15 µM)	0.8 µg/mL (≈ 1.58 µM)	0.8 µg/mL (≈ 1.58 µM)	≤ 0.1 µg/mL	0.8 µg/mL (≈ 1.58 µM)
0.4 µg/mL (≈ 0.704 µM)	0.4 µg/mL (≈ 0.704 µM)	1.6 µg/mL (≈ 2.81 µM)	1.6 µg/mL (≈ 2.81 µM)	CC(C)(C(NC(=O)c1ccc(C#Cc2ccc(CNCc3ccc(C(F)(F)F)cc3)cc2)cc1)C(=O)NO)[N+](=O)[O-] (centres unmarked) [Compound 279]	6.3 µg/mL (≈ 11.1 µM)	6.3 µg/mL (≈ 11.1 µM)	3.1 µg/mL (≈ 5.45 µM)	6.3 µg/mL (≈ 11.1 µM)	1.6 µg/mL (≈ 2.81 µM)	6.3 µg/mL (≈ 11.1 µM)
0.4 µg/mL (≈ 0.85 µM)	≤ 0.1 µg/mL	0.8 µg/mL (≈ 1.7 µM)	1.6 µg/mL (≈ 3.4 µM)	CC[C@H](C)[C@H](NC(=O)c1ccc(C#Cc2ccc(CNCc3ccccn3)cc2)cc1)C(=O)NO [Compound 180]	1.6 µg/mL (≈ 3.4 µM)	3.1 µg/mL (≈ 6.59 µM)	0.8 µg/mL (≈ 1.7 µM)	1.6 µg/mL (≈ 3.4 µM)	0.2 µg/mL (≈ 0.425 µM)	1.6 µg/mL (≈ 3.4 µM)

SMILES	MIC PM 6267 [1]	MIC PM 10775 [8]	MIC PM 12080 [9]	MIC PM 6391 [10]	MIC MH 13065 [2]	MIC MH 12587 [3]	MIC MH 6357 [4]	MIC MH 13093 [5]	MIC MH 10720 [6]	MIC MH 6374 [7]
CC(C)([C@H](NC(=O)c1ccc(C#Cc2ccc(CNCc3nccs3)cc2)cc1)C(=O)NO)S(C)(=O)=O [C.274]	≤ 0.1 µg/mL	≤ 0.1 µg/mL	≤ 0.1 µg/mL	≤ 0.1 µg/mL	0.2 µg/mL (≈ 0.37 µM)	0.4 µg/mL (≈ 0.74 µM)	0.2 µg/mL (≈ 0.37 µM)	0.2 µg/mL (≈ 0.37 µM)	≤ 0.1 µg/mL	0.2 µg/mL (≈ 0.37 µM)
